Experimental data: PubChem BioAssay (NCI)
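1) Cells in 96-well plates. 2) Compound, 48 h, 5 concentrations. 3) Linear interpolation between surrounding doses. 4) Unreached endpoint = highest concentration. TGI: concentration producing complete growth inhibition.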 *1 amine or outer side, *2 acyl side, *3 side chain or, on linkers, in order; H or OH if unused. Where a SMILES comes first, the peptide text is derived from it. [ ]: non-standard residue; d: D form. The star is where a group is joined. ξ: configuration not given here. X53 = CC(C)C[C@H](N[*:1])C1=N[C@H](C(=O)[*:2])CS1; Ile(3ξ) = CCC(C)[C@H](N)C(=O)O; Allyl(1,1-Me2) = C=CC(C)(C)*

Columns and labels:
Assay in all cases: inhibition of tumour cell growth, NCI panel, 48 h
[1] = test system: 786-0 renal
[2] = test system: A498 renal
[3] = test system: A549 NSCLC
[4] = test system: ACHN renal
[5] = test system: BT-549 breast
[6] = test system: CAKI-1 renal
[7] = test system: CCRF-CEM leukemia
[8] = test system: COLO 205 colon
[9] = test system: DU-145 prostate
[10] = test system: EKVX NSCLC
[11] = test system: HCC-2998 colon
[12] = test system: HCT-116 colon
[13] = test system: HCT-15 colon
[14] = test system: HL-60(TB) leukemia
[15] = test system: HOP-62 NSCLC
[16] = test system: HOP-92 NSCLC
[17] = test system: HS 578T breast
[18] = test system: HT29 colon
[19] = test system: IGROV1 ovarian
[20] = test system: K-562 leukemia
[21] = test system: KM12 colon
[22] = test system: LOX IMVI melanoma
[23] = test system: M14 melanoma
[24] = test system: MALME-3M melanoma
[25] = test system: MCF7 breast
[26] = test system: MDA-MB-231 breast
[27] = test system: MDA-MB-435
[28] = test system: MDA-N
[29] = test system: MOLT-4 leukemia
[30] = test system: NCI-H226 lung
[31] = test system: NCI-H23 lung
[32] = test system: NCI-H460 lung
[33] = test system: NCI-H522 lung
[34] = test system: NCI/ADR-RES ovarian
[35] = test system: OVCAR-3 ovarian
[36] = test system: OVCAR-4 ovarian
[37] = test system: OVCAR-5 ovarian
[38] = test system: OVCAR-8 ovarian
[39] = test system: PC-3 prostate
[40] = test system: RPMI-8226 leukemia
[41] = test system: RXF 393 renal
[42] = test system: SF-268 CNS
[43] = test system: SF-295 CNS
[44] = test system: SF-539 CNS
[45] = test system: SK-MEL-2 melanoma
[46] = test system: SK-MEL-28 melanoma
[47] = test system: SK-MEL-5 melanoma
[48] = test system: SK-OV-3 ovarian
[49] = test system: SN12C renal
[50] = test system: SNB-19 CNS
[51] = test system: SNB-75 CNS
[52] = test system: SR leukemia
[53] = test system: SW-620 colon
[54] = test system: T-47D breast
[55] = test system: TK-10 renal
[56] = test system: U251 CNS
[57] = test system: UACC-257 melanoma
[58] = test system: UACC-62 melanoma
[59] = test system: UO-31 renal

Cn1c(=O)c2[nH]c(CCCCc3nc4ccccc4[nH]3)nc2n(C)c1=O
TGI [1]: > 100 µM | TGI [2]: > 100 µM | TGI [3]: > 100 µM | TGI [4]: > 100 µM | TGI [5]: > 100 µM | TGI [6]: > 100 µM | TGI [7]: > 100 µM | TGI [8]: > 100 µM | TGI [9]: > 100 µM | TGI [10]: > 100 µM | TGI [11]: > 100 µM | TGI [12]: > 100 µM | TGI [13]: > 100 µM | TGI [14]: > 100 µM | TGI [15]: > 100 µM | TGI [16]: 95.8 µM | TGI [17]: > 100 µM | TGI [18]: > 100 µM | TGI [19]: > 100 µM | TGI [20]: > 100 µM | TGI [21]: > 100 µM | TGI [22]: > 100 µM | TGI [23]: > 100 µM | TGI [24]: > 100 µM | TGI [25]: > 100 µM | TGI [26]: > 100 µM | TGI [27]: > 100 µM | TGI [28]: > 100 µM | TGI [29]: > 100 µM | TGI [30]: > 100 µM | TGI [31]: > 100 µM | TGI [32]: > 100 µM | TGI [33]: > 100 µM | TGI [34]: > 100 µM | TGI [35]: > 100 µM | TGI [36]: > 100 µM | TGI [37]: > 100 µM | TGI [38]: > 100 µM | TGI [39]: > 100 µM | TGI [40]: > 100 µM | TGI [41]: > 100 µM | TGI [42]: > 100 µM | TGI [43]: > 100 µM | TGI [44]: > 100 µM | TGI [45]: > 100 µM | TGI [46]: > 100 µM | TGI [47]: > 100 µM | TGI [48]: > 100 µM | TGI [49]: > 100 µM | TGI [50]: > 100 µM | TGI [51]: > 100 µM | TGI [52]: > 100 µM | TGI [53]: > 100 µM | TGI [54]: > 100 µM | TGI [55]: > 100 µM | TGI [56]: > 100 µM | TGI [57]: > 100 µM | TGI [58]: > 100 µM | TGI [59]: > 100 µM

O=C1c2ccccc2C(=O)N1[C@@H](Cc1ccccc1)C(=O)n1cccc1CO
TGI [1]: > 100 µM | TGI [2]: > 100 µM | TGI [3]: > 100 µM | TGI [4]: > 100 µM | TGI [5]: > 100 µM | TGI [6]: > 100 µM | TGI [7]: > 100 µM | TGI [8]: > 100 µM | TGI [9]: > 100 µM | TGI [10]: > 100 µM | TGI [11]: > 100 µM | TGI [12]: > 100 µM | TGI [13]: > 100 µM | TGI [14]: > 100 µM | TGI [15]: > 100 µM | TGI [16]: > 100 µM | TGI [17]: > 100 µM | TGI [18]: > 100 µM | TGI [19]: > 100 µM | TGI [20]: > 100 µM | TGI [21]: > 100 µM | TGI [22]: > 100 µM | TGI [23]: > 100 µM | TGI [24]: > 100 µM | TGI [25]: > 100 µM | TGI [26]: > 100 µM | TGI [27]: > 100 µM | TGI [28]: > 100 µM | TGI [29]: > 100 µM | TGI [30]: > 100 µM | TGI [31]: > 100 µM | TGI [32]: > 100 µM | TGI [33]: > 100 µM | TGI [34]: > 100 µM | TGI [35]: > 100 µM | TGI [36]: > 100 µM | TGI [37]: > 100 µM | TGI [38]: > 100 µM | TGI [39]: > 100 µM | TGI [40]: > 100 µM | TGI [41]: 56.6 µM | TGI [42]: > 100 µM | TGI [43]: > 100 µM | TGI [44]: > 100 µM | TGI [45]: > 100 µM | TGI [46]: > 100 µM | TGI [47]: > 100 µM | TGI [48]: > 100 µM | TGI [49]: > 100 µM | TGI [50]: > 100 µM | TGI [51]: > 100 µM | TGI [52]: > 100 µM | TGI [53]: > 100 µM | TGI [54]: > 100 µM | TGI [55]: > 100 µM | TGI [56]: > 100 µM | TGI [57]: > 100 µM | TGI [58]: > 100 µM | TGI [59]: > 100 µM

CCCCCCCCCCCC(=O)N(CCCCCCCCCCC(=O)O)CC(O)C(O)C(OC1OC(CO)C(O)C(O)C1O)C(O)CO (centres undefined)
TGI [1]: > 100 µM | TGI [2]: > 100 µM | TGI [3]: > 100 µM | TGI [4]: > 100 µM | TGI [5]: > 100 µM | TGI [6]: > 100 µM | TGI [7]: > 100 µM | TGI [8]: > 100 µM | TGI [9]: > 100 µM | TGI [10]: > 100 µM | TGI [11]: > 100 µM | TGI [12]: > 100 µM | TGI [13]: > 100 µM | TGI [14]: > 100 µM | TGI [15]: > 100 µM | TGI [16]: > 100 µM | TGI [17]: > 100 µM | TGI [18]: > 100 µM | TGI [19]: > 100 µM | TGI [20]: > 100 µM | TGI [21]: > 100 µM | TGI [22]: > 100 µM | TGI [23]: > 100 µM | TGI [24]: > 100 µM | TGI [25]: > 100 µM | TGI [26]: > 100 µM | TGI [27]: > 100 µM | TGI [28]: > 100 µM | TGI [29]: > 100 µM | TGI [30]: > 100 µM | TGI [31]: > 100 µM | TGI [32]: > 100 µM | TGI [33]: > 100 µM | TGI [34]: > 100 µM | TGI [35]: > 100 µM | TGI [36]: > 100 µM | TGI [37]: > 100 µM | TGI [38]: > 100 µM | TGI [39]: > 100 µM | TGI [40]: > 100 µM | TGI [41]: > 100 µM | TGI [42]: > 100 µM | TGI [43]: > 100 µM | TGI [44]: > 100 µM | TGI [45]: > 100 µM | TGI [46]: > 100 µM | TGI [47]: > 100 µM | TGI [48]: > 100 µM | TGI [49]: > 100 µM | TGI [50]: > 100 µM | TGI [51]: > 100 µM | TGI [52]: > 100 µM | TGI [53]: > 100 µM | TGI [54]: > 100 µM | TGI [55]: > 100 µM | TGI [56]: > 100 µM | TGI [57]: > 100 µM | TGI [58]: > 100 µM | TGI [59]: > 100 µM

C=CC(C)(C)OC[C@@H]1NC(=O)CNC(=O)[C@@H]2CCCN2C(=O)[C@H](C(C)CC)NC(=O)[C@@H]2CSC(=N2)[C@H](CC(C)C)NC1=O (some centres undefined) (cyclo(GS(Allyl(1,1-Me2))[X53][Ile(3ξ)]P))
TGI [1]: > 100 µM | TGI [2]: > 100 µM | TGI [3]: > 100 µM | TGI [4]: > 100 µM | TGI [5]: > 100 µM | TGI [6]: > 100 µM | TGI [7]: > 100 µM | TGI [8]: > 100 µM | TGI [9]: > 100 µM | TGI [10]: > 100 µM | TGI [11]: > 100 µM | TGI [12]: > 100 µM | TGI [13]: > 100 µM | TGI [14]: 64.4 µM | TGI [15]: > 100 µM | TGI [16]: > 100 µM | TGI [17]: > 100 µM | TGI [18]: > 100 µM | TGI [19]: > 100 µM | TGI [20]: > 100 µM | TGI [21]: > 100 µM | TGI [22]: > 100 µM | TGI [23]: > 100 µM | TGI [24]: > 100 µM | TGI [25]: > 100 µM | TGI [26]: > 100 µM | TGI [27]: > 100 µM | TGI [28]: > 100 µM | TGI [29]: 76.1 µM | TGI [30]: > 100 µM | TGI [31]: > 100 µM | TGI [32]: > 100 µM | TGI [33]: > 100 µM | TGI [34]: > 100 µM | TGI [35]: > 100 µM | TGI [36]: > 100 µM | TGI [37]: > 100 µM | TGI [38]: > 100 µM | TGI [39]: > 100 µM | TGI [40]: 94.1 µM | TGI [41]: > 100 µM | TGI [42]: > 100 µM | TGI [43]: > 100 µM | TGI [44]: > 100 µM | TGI [45]: > 100 µM | TGI [47]: > 100 µM | TGI [48]: > 100 µM | TGI [49]: > 100 µM | TGI [50]: > 100 µM | TGI [51]: > 100 µM | TGI [52]: > 100 µM | TGI [54]: > 100 µM | TGI [55]: > 100 µM | TGI [56]: > 100 µM | TGI [57]: > 100 µM | TGI [58]: > 100 µM | TGI [59]: > 100 µM
